Assay results as given in US8952150B2, “Prostaglandin transporter inhibitors and uses thereof” (Albert Einstein College of Medicine of Yeshiva University, priority 2009, dated 2015).

Target: rat PGT (Rattus norvegicus (Rat), UniProt Q00910)
Assay: [3H]PGE2 uptake inhibition in MDCK cells stably transfected with rat PGT (percent inhibition and IC50)
Type: cell-based
Conditions: for Inh (% of Ctl) 0.5 μM: 0.5 μM compound; for Inh (% of Ctl) 0.5 μM / Inh (% of Ctl) 5 μM / Inh (% of Ctl) 2.5 μM / Inh (% of Ctl) 1 μM / Inh (% of Ctl) 10 μM / Inh (% of Ctl) 0.1 μM: inhibition of [3H]PGE2 uptake; for Inh (% of Ctl) 5 μM: 5 μM compound; for Inh (% of Ctl) 2.5 μM: 2.5 μM compound; for Inh (% of Ctl) 1 μM: 1 μM compound; for Inh (% of Ctl) 10 μM: 10 μM compound; for IC50: [3H]PGE2 uptake, MDCK cells stably transfected with rat PGT; for Inh (% of Ctl) 0.1 μM: 0.1 μM compound
Method: MDCK cells stably transfected with rat PGT (Endo et al., 2002) were seeded at 15-20% confluence on 24-well plates. The day on which the cells were seeded was considered day 1. PGE2 uptake experiments were conducted on day 4. All of the PGE2 uptake experiments were conducted at room temperature. On day 4, cells were washed twice with Waymouth buffer (135 mM NaCl, 13 mM H-Hepes, 13 mM Na-Hepes, 2.5 mM CaCl2, 1.2 mM MgCl2, 0.8 mM MgSO4, 5 mM KCl, and 28 mM D-glucose). Then 200 μL of Waymouth buffer containing [^3H]PGE2 (purchased from Perkin Elmer) was added to each well. At the designed time, the uptake of [^3H]PGE2 was stopped by aspiration of uptake buffer; this was followed by immediate washing twice with 500 μL of chilled Waymouth buffer. Cells were then lysed with 100 μL lysis buffer containing 0.25% SDS and 0.05 N NaOH. 1.5 mL of scintillation solution was added to each well, and intracellular [^3H]PGE2 was counted by MicroBeta Counter.
For preliminary testing of the compounds, 20 μL of Waymouth buffer containing the compound was added to each well; this was immediately followed by the addition of 180 μL of Waymouth buffer containing [^3H]PGE2. In each well, the total volume of uptake medium was 200 μL. Organic compounds were first dissolved in EtOH and then diluted in Waymouth buffer. The percent inhibition of [^3H]PGE2 uptake by compounds was calculated as [(uptakevehicle−uptakeinhibitor)÷(uptakevehicle)]×100.
IC50 was calculated by fitting an equation of y=m1−m1*(m0/(m2+m0)).

SMILES	Inh (% of Ctl) 0.5 μM	Inh (% of Ctl) 5 μM	Inh (% of Ctl) 2.5 μM	Inh (% of Ctl) 1 μM	Inh (% of Ctl) 10 μM	IC50	Inh (% of Ctl) 0.1 μM
CN(Cc1ccccc1)C(=O)c1ccc(Nc2nc(NCCOCCOCCNC(=O)c3ccccc3)nc(Nc3ccc(O)cc3)n2)cc1 [compound 68]	15.0 % of Ctl	70.8 % of Ctl	–	–	–	–	–
O=C(NCCOCCNc1nc(Nc2ccc(O)cc2)nc(Nc2ccc(C(=O)NCc3ccc(Cl)cc3)cc2)n1)c1ccccc1 [compound 98]	6.7 % of Ctl	75.1 % of Ctl	24.9 % of Ctl	–	–	–	–
O=C(NCCCCNc1nc(Nc2ccccc2)nc(Nc2ccc(O)cc2)n1)c1ccccc1 [compound 84]	–	13.7 % of Ctl	–	5.7 % of Ctl	37.1 % of Ctl	–	–
O=C(NCCOCCOCCNc1nc(Nc2ccc(C(=O)NCc3ccccc3)cc2)nc(Nc2ccc3[nH]ncc3c2)n1)c1ccccc1 [compound 64]	15.5 % of Ctl	77.2 % of Ctl	–	71.6 % of Ctl	90.2 % of Ctl	115 nM	–
O=C(NCCOCCOCCNc1nc(Nc2ccc(O)cc2)nc(Nc2ccc(C(=O)NCc3cc(F)cc(F)c3)cc2)n1)c1ccccc1 [compound 130]	73.2 % of Ctl	–	–	81.7 % of Ctl	–	–	41.6 % of Ctl
O=C(NCCOCCOCCNc1nc(Nc2ccc(O)cc2)nc(Nc2ccc(C(=O)NCc3cccc(C(F)(F)F)c3)cc2)n1)c1ccccc1 [compound 101]	54.0 % of Ctl	91.4 % of Ctl	71.0 % of Ctl	–	–	–	47.4 % of Ctl
O=C(NCCOCCNc1nc(Nc2ccc(O)cc2)nc(Nc2ccc(C(=O)NCc3ccccc3)cc2)n1)Nc1ccccc1 [compound 139]	30.7 % of Ctl	–	–	39.0 % of Ctl	–	–	16.3 % of Ctl
NS(=O)(=O)c1ccc(Nc2nc(NCCOCCOCCNC(=O)c3ccccc3)nc(Nc3ccc(O)cc3)n2)cc1 [compound 46]	–	–	–	4.1 % of Ctl	32.4 % of Ctl	–	–
O=C(NCCCCCCNc1nc(Nc2ccccc2)nc(Nc2ccc(O)cc2)n1)c1ccccc1 [compound 62]	–	–	–	20.4 % of Ctl	50.1 % of Ctl	–	–
COC(=O)c1ccc(CNc2nc(NCCOCCOCCNC(=O)c3ccccc3)nc(Nc3ccc(C(=O)NCc4ccccc4)cc3)n2)cc1 [compound 117]	36.7 % of Ctl	–	–	–	–	–	8.1 % of Ctl
O=C(NCCOCCOCCNc1nc(Nc2ccc(O)cc2)nc(Nc2cccc(C(=O)NCc3ccccc3)c2)n1)c1ccccc1 [compound 78]	15.5 % of Ctl	83.2 % of Ctl	24.5 % of Ctl	–	–	–	–
COCCOCCOCCNC(=O)c1ccc(Nc2nc(NCCOCCOCCNC(=O)c3ccccc3)nc(Nc3ccc(O)cc3)n2)cc1 [compound 19]	41.3 % of Ctl	75.0 % of Ctl	–	–	–	–	–
O=C(NCCOCCOCCNc1nc(Nc2ccc(O)cc2)nc(Nc2ccc(C(=O)N[C@H](C(=O)O)c3ccccc3)cc2)n1)c1ccccc1 [compound 80]	0.7 % of Ctl	57.2 % of Ctl	21.8 % of Ctl	–	–	–	–
O=C(NCCOCCOCCNc1nc(Nc2ccc(O)cc2)nc(Nc2ccc(C(=O)NCc3ccncc3)cc2)n1)c1ccccc1 [compound 71]	16.7 % of Ctl	78.4 % of Ctl	–	–	–	–	–
O=C(NCCOCCOCCNc1nc(Nc2ccc(O)cc2)nc(Nc2ccc(C(=O)NCc3ccc(-c4ccccc4)cc3)cc2)n1)c1ccccc1 [compound 93]	24.6 % of Ctl	51.1 % of Ctl	43.3 % of Ctl	–	–	–	–
O=C(NCCOCCOCCNc1nc(Nc2ccc(O)cc2)nc(NC2CCCCC2)n1)c1ccccc1 [compound 27]	28.2 % of Ctl	53.8 % of Ctl	–	–	–	–	–
O=C(NCCOCCOCCNc1nc(Nc2ccc(O)cc2)nc(Nc2ccc(C(=O)Nc3ccccc3)cc2)n1)c1ccccc1 [compound 103]	38.3 % of Ctl	83.7 % of Ctl	62.2 % of Ctl	–	–	–	–
CC(C)(NC(=O)c1ccc(Nc2nc(NCCOCCOCCNC(=O)c3ccccc3)nc(Nc3ccc(O)cc3)n2)cc1)c1ccccc1 [compound 66]	10.9 % of Ctl	64.4 % of Ctl	–	–	–	–	–
CCCCCCNC(=O)c1ccc(Nc2nc(NCCOCCOCCNC(=O)c3ccccc3)nc(Nc3ccc4[nH]ncc4c3)n2)cc1 [compound 65]	18.4 % of Ctl	84.0 % of Ctl	–	66.4 % of Ctl	90.0 % of Ctl	1380 nM	–
O=C(NCCOCCOCCNc1nc(Nc2ccccc2)nc(Nc2ccc3cn[nH]c3c2)n1)c1ccccc1 [compound 53]	–	83.4 % of Ctl	–	65.2 % of Ctl	86.4 % of Ctl	4040 nM	–
O=C(CCCCCCNc1nc(Nc2ccccc2)nc(Nc2ccc(O)cc2)n1)NCc1ccccc1 [compound 97]	–	19.4 % of Ctl	–	13.1 % of Ctl	30.8 % of Ctl	–	–
O=C(O)Cc1ccc(Nc2nc(NCCOCCOCCNC(=O)c3ccccc3)nc(Nc3ccc(C(=O)NCc4ccccc4)cc3)n2)cc1 [compound 125]	24.3 % of Ctl	–	–	–	–	–	3.2 % of Ctl
O=C(NCCOCCNc1nc(Nc2ccc(O)cc2)nc(Nc2ccc(C(=O)NCc3ccc(F)cc3)cc2)n1)c1ccccc1 [compound 147]	70.2 % of Ctl	–	–	79.5 % of Ctl	–	31.7 nM	44.5 % of Ctl
O=C(NCCOCCOCCNc1nc(Nc2ccc(O)cc2)nc(Nc2ccc(C(=O)NCc3cccc(Cl)c3)cc2)n1)c1ccccc1 [compound 87]	71.8 % of Ctl	90.6 % of Ctl	83.5 % of Ctl	–	–	710 nM	55.1 % of Ctl
O=C(NCCOCCOCCNc1nc(Nc2ccccc2)nc(Nc2ccc(O)cc2)n1)c1cccc(F)c1 [compound 34]	–	–	–	25.8 % of Ctl	81 % of Ctl	–	–
O=C(NCCOCCOCCNc1nc(Nc2ccc(O)cc2)nc(Nc2ccc(C(=O)NCc3cccc(F)c3F)cc2)n1)c1ccccc1 [compound 126]	56.3 % of Ctl	–	–	70.0 % of Ctl	–	–	24.0 % of Ctl
CN(C)c1nc(NCCOCCOCCNC(=O)c2ccccc2)nc(Nc2ccc(OCc3ccccc3)cc2)n1 [compound 5]	6.6 % of Ctl	9.6 % of Ctl	–	–	–	–	–
O=C(O)c1ccc(Nc2nc(NCCOCCOCCNC(=O)c3ccccc3)nc(Nc3ccccc3)n2)cc1 [compound 58]	–	41.0 % of Ctl	–	16.25 % of Ctl	52.5 % of Ctl	–	–
O=C(NCCOCCOCCNc1nc(Nc2ccc(O)cc2)nc(Nc2ccc(C(=O)NCc3ccc(Cl)cc3Cl)cc2)n1)c1ccccc1 [compound 100]	56.4 % of Ctl	86.0 % of Ctl	57.6 % of Ctl	–	–	–	41.1 % of Ctl
O=C(NCCOCCOCCNc1nc(Nc2ccc(C(=O)NCc3ccc(F)cc3)cc2)nc(Nc2ccc(O)c(F)c2)n1)c1ccccc1 [compound 143]	57.8 % of Ctl	–	–	69.5 % of Ctl	–	16.5 nM	33.7 % of Ctl
